Experiments:
KrasG12D-mutant clones = assay: KrasG12D clone dynamics in vivo with or without LiCl; set-up: species or system mouse; settings: Lgr5-CreErt2;Rosa26mTmG;KrasG12D mice
Protocol: (§1) Lgr5-EGFP-IRES-Cre^ERT2 Villin-Cre^ERT2, Rosa26mTmG, Apc^fl/fl and Kras^G12D mice have been described earlier^30-34. All in vivo experiments were approved by the animal experimentation committee at the Amsterdam UMC—location Academic Medical Center in Amsterdam under nationally registered licence number AVD1180020172125 and performed according to national guidelines. Mice were housed in a 12 hour light/12 hour dark cycle, with temperatures between 20-24° C. and 40-70% humidity. For short term assays, both male and female mice were used. For long term assays, only females were used to prevent the risk of preliminary dropout due to fighting male mice. […] For all mouse experiments, sufficient sample sizes were determined based on previous studies with a similar study design^3,35. Experimental animals were randomly assigned to the control or lithium treated groups, clone sizes and adenoma counts were scored blindly. […] Mouse discomfort during tumour formation assays was closely monitored, and endpoints were determined as <15% weight loss within 2 days or a mouse grimace scale (MGS) score<3. […] After 60 days, intestines were removed and polyps were counted macroscopically.
(§2) After the mice were sacrificed, intestines were removed fully and washed thoroughly with ice-cold PBS. […] For all crypt analyses, clone sizes were quantified as proportions of the crypt circumference (in eights, 1:8-8:8). […]

intestinal adenomas = assay: Long term adenoma formation in Lgr5-CreErt2;Apcfl/fl mice; type: in vivo, mouse; settings: LiCl pre-treatment and maintenance, 60 days after induction
Protocol: (§3) Lgr5-EGFP-IRES-Cre^ERT2 Villin-Cre^ERT2, Rosa26mTmG, Apc^fl/fl and Kras^G12D mice have been described earlier^30-34. All in vivo experiments were approved by the animal experimentation committee at the Amsterdam UMC—location Academic Medical Center in Amsterdam under nationally registered licence number AVD1180020172125 and performed according to national guidelines. Mice were housed in a 12 hour light/12 hour dark cycle, with temperatures between 20-24° C. and 40-70% humidity. For short term assays, both male and female mice were used. For long term assays, only females were used to prevent the risk of preliminary dropout due to fighting male mice. All mice were between 6-12 weeks old at the start of the experiments. For all mouse experiments, sufficient sample sizes were determined based on previous studies with a similar study design^3,35. Experimental animals were randomly assigned to the control or lithium treated groups, clone sizes and adenoma counts were scored blindly. […] Mouse discomfort during tumour formation assays was closely monitored, and endpoints were determined as <15% weight loss within 2 days or a mouse grimace scale (MGS) score<3. […] After 60 days, intestines were removed and polyps were counted macroscopically.

[1] = tested on: Apc-/- mutant clones in crypts; assay: Short term clonal dynamics of Notumpos/Apc-/- clones in Lgr5-CreErt2;Apcfl/fl mice; type: in vivo, mouse
Protocol: Lgr5-EGFP-IRES-Cre^ERT2 Villin-Cre^ERT2, Rosa26mTmG, Apc^fl/fl and Kras^G12D mice have been described earlier^30-34. All in vivo experiments were approved by the animal experimentation committee at the Amsterdam UMC—location Academic Medical Center in Amsterdam under nationally registered licence number AVD1180020172125 and performed according to national guidelines. Mice were housed in a 12 hour light/12 hour dark cycle, with temperatures between 20-24° C. and 40-70% humidity. For short term assays, both male and female mice were used. For long term assays, only females were used to prevent the risk of preliminary dropout due to fighting male mice. All mice were between 6-12 weeks old at the start of the experiments. For all mouse experiments, sufficient sample sizes were determined based on previous studies with a similar study design^3,35. Experimental animals were randomly assigned to the control or lithium treated groups, clone sizes and adenoma counts were scored blindly. In vivo low-dose recombination was induced by intraperitoneal injection (i.p.) of 0.3 mg (for Rosa26^mTmG and Kras^G12D mice) or 2 mg (for Ape^−/− mice) tamoxifen (Sigma) dissolved in sunflower oil. […] Treatment with LiCl was initiated 7 days before recombination by i.p. injection of tamoxifen and was administered until the day they were sacrificed. For short term experiments to study stem cell dynamics, mice were sacrificed at day 4, 7, 10, 14, 21 days after intra peritoneal (i.p.) injection and intestines were removed and further processed for analyses. For long term adenoma formation experiments, mice were injected with 2 mg tamoxifen and sacrificed 60 days after i.p. injection. Mouse discomfort during tumour formation assays was closely monitored, and endpoints were determined as <15% weight loss within 2 days or a mouse grimace scale (MGS) score<3. […] After 60 days, intestines were removed and polyps were counted macroscopically.
After the mice were sacrificed, intestines were removed fully and washed thoroughly with ice-cold PBS. The intestines were cut into pieces of 5 mm, opened longitudinally and fixed overnight in 4% paraformaldehyde (PFA) solution. To preserve tissue integrity the intestines were kept in 30% sucrose solution for another night before freezing. Crypt bottoms were sliced with a thickness of […] at a Cryostar™ NX70 cryostat and placed on glass slips. Fluorescent lineage tracing labels were visualized with a SP8X Confocal (Leica), slides were counterstained with Hoechst-33342. RNA-ISH stained coupes were counterstained with hematoxylin and scanned using the IntelliSite Ultra Fast 1.6 slide scanner (Philips). For all crypt analyses, clone sizes were quantified as proportions of the crypt circumference (in eights, 1:8-8:8).
RNA in situ hybridisation (RNAscope) and Basescope was performed on fixed frozen intestinal tissue (mouse) and paraffine embedded tissue (mouse and human) according to manufacturer's protocol (ACD RNAscope® 2.5 HD—Brown and Red, and ACD BaseScope™ v2—Red). RNAscope was used for detection of mouse Notum (#428981), Wif1 (#412361), Dkk2 (#404841) or positive control Ppib (#313911) and human NOTUM (#430311) and positive control PPIB (#313901). BaseScope probe ApcE14-E16 (#703011) was used to detect recombined Apc alleles. RNAscope duplex was performed using the RNAscope Duplex Reagent Kit (#322430, ACD) with additional Lgr5 probe (#312171-C2). After RNAscope procedures tissues were counterstained for Hematoxylin or Hoechst-33342. RNAscope was quantified using QuPath software v0.2.2^39.
The clone data was modelled using the models and methods developed in Vermeulen et al.^3. An R package implementing the model was used and is available at https://qithub.com/MorrisseyLab/CryptDriftR.

human colon organoids = assay: Human colon organoids incubated with FAP CM; type: cell-based; settings: FAP CM with or without LiCl
[2] = Lithium levels in mouse serum after oral LiCl; type: in vivo; settings: oral LiCl 300 mg/liter in tap water, Lgr5-CreErt2;Rosa26mTmG mice
Protocol: as §3

[3] = tested on: intestinal stem cells (ISCs) / intestinal epithelial cells; assay: Oral LiCl in WT Lgr5-CreErt2;Rosa26mTmG mice: Wnt activation and neutral ISC dynamics; type: in vivo, mouse
Protocol: as §1, §2

[Cl-].[Li+] [LiCl, lithium chloride]
KrasG12D clone dynamics (KrasG12D-mutant clones): remained unaffected
Adenoma formation (number of adenomas) (intestinal adenomas): markedly reduced adenoma formation in all segments of the intestine
Reduction of Lgr5 expression by Notumpos/Apc-/- clones within the same and neighbouring crypts ([1]; Lgr5-CreErt2;Apcfl/fl mice, oral LiCl): prevented this
Number of Notumpos clones (crypts) ([1]; LiCl treated mice, day 21): reduced number of Notum^pos clones
Probability of clonal fixation in a crypt (Pfix) ([1]; LiCl treated mice, model): markedly reduced probability of clonal fixation
Number of functional ISCs (WT stem cells, NWT) in crypts ([1]; LiCl treated mice, adapted drift model, 4.7 untreated with Apc-/- clones, 5.6 fully WT crypts): 6.5 (95% Cl: 6.2-6.8)
Probability of replacement (PR) of WT ISCs by Apc-/- ISCs ([1]; LiCl treated mice, inferred by stem cell drift model, untreated 0.65, neutral 0.5): 0.34 (95% Cl: 0.31-0.37)
Rate of Notumpos/Apc-/- clone expansion and fixation ([1]; LiCl versus non-treated mice, up to day 21): significantly reduced
Stemness (LGR5 expression) and clonogenicity of human colon organoids incubated with FAP CM (human colon organoids): rescued loss of sternness and clonogenicity
Serum concentrations (Li+), tolerability [2]: well-tolerated serum concentrations
Influence on fundamental ISC dynamics (neutral ISC competition) ([3]; WT mice, oral LiCl): no influence on fundamental ISC dynamics
Wnt activation in intestinal epithelial cells (Lgr5 expression, Lgr5-GFP cells) ([3]; oral LiCl 300 mg/liter in tap water): effective Wnt activation
